Laboratory results published in patent US20240158446A1, “CYCLIC COMPOUND HAVING SELECTIVE INHIBITORY ACTION ON KRAS OVER HRAS AND NRAS” (CHUGAI SEIYAKU KABUSHIKI KAISHA, priority 2021, published 2024).
*1 amine or outer side, *2 acyl side, *3 side chain or, on linkers, in order; H or OH if unused. Where a SMILES comes first, the peptide text is derived from it. Bridges are numbered along the chain shown (N, C = ends). [ ]: non-standard residue; d: D form. The star is where a group is joined. X47 = CC(C)(C)CCN([C@@H](Cc1ccc(C(F)(F)F)cc1)C(=O)[*:2])[*:1]; hPhe(3-Cl-4-CF3) = N[C@@H](CCc1ccc(C(F)(F)F)c(Cl)c1)C(=O)O; NMeGly(cPent) = CN[C@H](C(=O)O)C1CCCC1; NMeD = CN[C@@H](CC(=O)O)C(=O)O; NMeL = CN[C@@H](CC(C)C)C(=O)O; Morpholide = C1CN(*)CCO1; Ac5c = NC1(C(=O)O)CCCC1; Sar = CNCC(=O)O

What was measured:
[1] = target: GDP-bound NRAS wild-type protein (Homo sapiens, UniProt P01111); assay: Binding to NRAS by surface plasmon resonance (SPR), Single Cycle Kinetics; conditions: for NRAS/KRAS (ratio of KD value with respect to GDP-bound NRAS wild-type protein to KD value with respect to KRAS): SPR KD ratio NRAS/KRAS, class symbols; for NRAS/KRAS (ratio of KD value for NRAS to KD value for KRAS): SPR, GDP-bound NRAS wild-type protein vs GDP-bound KRAS wild-type protein
GDP-bound NRAS wild-type protein, sequence (P01111 whole entry): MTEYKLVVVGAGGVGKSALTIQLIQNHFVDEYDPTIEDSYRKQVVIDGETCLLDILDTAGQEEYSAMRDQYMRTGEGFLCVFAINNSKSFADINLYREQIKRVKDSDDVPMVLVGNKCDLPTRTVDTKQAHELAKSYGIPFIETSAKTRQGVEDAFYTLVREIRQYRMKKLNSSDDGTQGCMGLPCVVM

[2] = target: GDP-bound HRAS wild-type protein (Homo sapiens, UniProt P01112); assay: Binding to HRAS by surface plasmon resonance (SPR), Single Cycle Kinetics; conditions: for HRAS/KRAS (ratio of KD value with respect to GDP-bound HRAS wild-type protein to KD value with respect to KRAS): SPR KD ratio HRAS/KRAS, class symbols; for HRAS/KRAS (ratio of KD value for HRAS to KD value for KRAS): SPR, GDP-bound HRAS wild-type protein vs GDP-bound KRAS wild-type protein
GDP-bound HRAS wild-type protein, sequence (P01112 whole entry): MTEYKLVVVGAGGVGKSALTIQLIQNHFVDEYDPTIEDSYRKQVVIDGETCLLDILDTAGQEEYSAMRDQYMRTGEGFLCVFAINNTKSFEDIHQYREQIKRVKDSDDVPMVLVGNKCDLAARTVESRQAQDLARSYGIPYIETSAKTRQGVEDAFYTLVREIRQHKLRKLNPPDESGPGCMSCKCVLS

| SMILES | NRAS/KRAS (ratio of KD value with respect to GDP-bound NRAS wild-type protein to KD value with respect to KRAS) [1] | HRAS/KRAS (ratio of KD value with respect to GDP-bound HRAS wild-type protein to KD value with respect to KRAS) [2] | NRAS/KRAS (ratio of KD value for NRAS to KD value for KRAS) [1] | HRAS/KRAS (ratio of KD value for HRAS to KD value for KRAS) [2] | also measured |
| --- | --- | --- | --- | --- | --- |
| CCC[C@H]1C(=O)N[C@@H]([C@@H](C)CC)C(=O)N(C)CC(=O)N(C)[C@H]2C/C=C\CCN(C2=O)[C@@H](Cc2ccc(C(F)(F)F)cc2)C(=O)N(C)CC(=O)N[C@@H](CCc2ccc(C3CC3)c(C)c2)C(=O)N2C[C@H](OCC)C[C@H]2C(=O)NC2(CC(C)(C)C2)C(=O)N(C)[C@@H](C2CCCC2)C(=O)N(C)[C@H](C(=O)N(C)C)CC(=O)N1C [PP2855] | A (a compound having 10 or more and less than 20 is denoted as A) | A (a compound having 10 or more and less than 20 is denoted as A) |  |  |  |
| CC[C@H](C)[C@@H]1NC(=O)[C@H](CC(C)C)N(C)C(=O)C[C@@H](C(=O)N2CCOCC2)N(C)C(=O)[C@H](C2CCCC2)N(C)C(=O)C2(CCCC2)NC(=O)[C@@H]2CCCN2C(=O)[C@H](CCc2ccc(C(F)(F)F)c(Cl)c2)NC(=O)CN(C)C(=O)[C@H](Cc2ccc(C(F)(F)F)cc2)N(CCC(C)(C)C)C(=O)CN(C)C(=O)CN(C)C1=O [PP0127] ([NMeL]I[Sar][Sar][X47][Sar][hPhe(3-Cl-4-CF3)]P[Ac5c][NMeGly(cPent)][NMeD]-Morpholide; lactam N-11) |  |  | C (A compound having a KD ratio of 0.1 or more and less than 3 is denoted as C) | C (A compound having a KD ratio of 0.1 or more and less than 3 is denoted as C) |  |
| CCC[C@H]1C(=O)N[C@@H]([C@@H](C)CC)C(=O)N(CCC)CC(=O)N(C)[C@H]2C/C=C\CCN(C2=O)[C@@H](Cc2ccc(C)cc2)C(=O)N(C)CC(=O)N[C@@H](CCc2ccc(C(F)(F)F)c(OC)c2)C(=O)N2C[C@H](OCC)C[C@H]2C(=O)NC2(CC(C)(C)C2)C(=O)N(C)[C@@H](C2CCCC2)C(=O)N(C)[C@H](C(=O)N(C)C)CC(=O)N1C [PP2054] |  |  | A (a compound having 10 or more and less than 20 is denoted as A) | A (a compound having 10 or more and less than 20 is denoted as A) |  |
| CCC[C@H]1C(=O)N[C@@H]([C@@H](C)CC)C(=O)N(C)CC(=O)N(C)[C@H]2C/C=C\CCN(C2=O)[C@@H](Cc2ccc(C(F)(F)F)cc2)C(=O)N(C)CC(=O)N[C@@H](CCc2ccc(C3CC3)c(Cl)c2)C(=O)N2C[C@H](OCC)C[C@H]2C(=O)NC2(CC(C)(C)C2)C(=O)N(C)[C@@H](C2CCCC2)C(=O)N(C)[C@H](C(=O)N(C)C)CC(=O)N1C [PP2858] | A (a compound having 10 or more and less than 20 is denoted as A) | B (a compound having 3 or more and less than 10 is denoted as B) |  |  |  |
| CCC[C@H]1C(=O)N[C@@H]([C@@H](C)CC)C(=O)N(C)CC(=O)N(C)[C@H]2C/C=C\CCN(C2=O)[C@@H](Cc2ccc(C(F)(F)F)cc2)C(=O)N(C)CC(=O)N[C@@H](CCc2cc(Cl)c(C(F)F)c(Cl)c2)C(=O)N2C[C@H](OCC)C[C@H]2C(=O)NC2(CC(C)(C)C2)C(=O)N(C)[C@@H](C2CCCC2)C(=O)N(C)[C@H](C(=O)N(C)C)CC(=O)N1C [PP2865] | A (a compound having 10 or more and less than 20 is denoted as A) | A (a compound having 10 or more and less than 20 is denoted as A) |  |  |  |
| CCC[C@H]1C(=O)N[C@@H]([C@@H](C)CC)C(=O)N(C2CC2)CC(=O)N(C)[C@H]2C/C=C\CCN(C2=O)[C@@H](Cc2ccc(C)cc2)C(=O)N(C)CC(=O)N[C@@H](CCc2ccc(C(F)(F)F)c(C3CC3)c2)C(=O)N2C[C@H](OCC)C[C@H]2C(=O)NC2(CC(C)(C)C2)C(=O)N(C)[C@@H](C2CCCC2)C(=O)N(C)[C@H](C(=O)N(C)C)CC(=O)N1C [PP2881] | A (a compound having 10 or more and less than 20 is denoted as A) | A (a compound having 10 or more and less than 20 is denoted as A) |  |  |  |
| CC[C@H](C)[C@@H]1NC(=O)[C@H](CC(C)C)N(C)C(=O)C[C@@H](C(=O)N2CCOCC2)N(C)C(=O)[C@H](C2CCCC2)N(C)C(=O)C2(CCC2)NC(=O)[C@@H]2C[C@@H](OCCC(F)(F)F)CN2C(=O)[C@H](CCc2cc(F)c(C(F)(F)F)c(F)c2)NC(=O)CN(C)C(=O)[C@H](Cc2ccc(C(F)(F)F)cc2)N2CCCC[C@@H](C2=O)N(C)C(=O)CN(C)C1=O (stereo in doubt) [PP0998] |  |  | B (a compound having 3 or more and less than 10 is denoted as B) | B (a compound having 3 or more and less than 10 is denoted as B) |  |
| CCO[C@@H]1C[C@H]2C(=O)NC3(CCC3)C(=O)N(C)[C@@H]([C@H](C)CC)C(=O)N(C)[C@H](C(=O)N3CCOCC3)CC(=O)N(C)[C@@H](CC(C)C)C(=O)N[C@@H]([C@@H](C)CC)C(=O)N(C)CC(=O)N(C)[C@H]3CCCCCN(C3=O)[C@@H](Cc3ccc(C(F)(F)F)cc3)C(=O)N(C)CC(=O)N[C@@H](CCc3cc(F)c(C(F)(F)F)c(F)c3)C(=O)N2C1 [PP0821] |  |  | A (a compound having 10 or more and less than 20 is denoted as A) | B (a compound having 3 or more and less than 10 is denoted as B) |  |
| CCCOC[C@H]1C(=O)N[C@@H]([C@@H](C)CC)C(=O)N(C)CC(=O)N(C)[C@H]2C/C=C\CCN(C2=O)[C@@H](Cc2ccc(C(F)(F)F)cc2)C(=O)N(C)CC(=O)N[C@@H](CCc2ccc(Cl)c(Cl)c2)C(=O)N2C[C@H](OCC)C[C@H]2C(=O)NC2(CCC2)C(=O)N(C)[C@@H](C2CCCC2)C(=O)N(C)[C@H](C(=O)N(C)CCC)CC(=O)N1C [PP2830] | A (a compound having 10 or more and less than 20 is denoted as A) | A (a compound having 10 or more and less than 20 is denoted as A) |  |  |  |
| CCO[C@@H]1C[C@H]2C(=O)NC3(CC(C)(C)C3)C(=O)N(C)[C@@H](C3CCCC3)C(=O)N(C)[C@H](C(=O)N(C)C)CC(=O)N(C)[C@@H](CC(C)C)C(=O)N[C@@H]([C@@H](C)CC)C(=O)N(C)CC(=O)N(C)[C@H]3C/C=C\CCN(C3=O)[C@@H](Cc3ccc(C(C)=O)cc3)C(=O)N(C)CC(=O)N[C@@H](CCc3ccc(C(F)(F)F)c(OC)c3)C(=O)N2C1 [PP2694] | A (a compound having 10 or more and less than 20 is denoted as A) | B (a compound having 3 or more and less than 10 is denoted as B) |  |  |  |
| CCO[C@@H]1C[C@H]2C(=O)NC3(CCC3)C(=O)N(C)[C@@H](C(CC)CC)C(=O)N(C)[C@H](C)CC(=O)N(C)[C@@H](CC(C)C)C(=O)N[C@@H]([C@@H](C)CC)C(=O)N(C)CC(=O)N(C)[C@H]3C/C=C\CCN(C3=O)[C@@H](Cc3ccc(F)cc3C)C(=O)N(C)CC(=O)N[C@@H](CCc3cc(F)c(C(F)(F)F)c(F)c3)C(=O)N2C1 [PP1524] |  |  |  |  | NRAS/KRAS (ratio of KD value for NRAS to KD value for KRAS) ([1]; KD ratio class): B (a compound having 3 or more and less than 10 is denoted as B); HRAS/KRAS (ratio of KD value for HRAS to KD value for KRAS) ([2]; KD ratio class): B (a compound having 3 or more and less than 10 is denoted as B) |
| CCO[C@@H]1C[C@H]2C(=O)NC3(CC(C)(C)C3)C(=O)N(C)[C@@H](C3CCCC3)C(=O)N(C)[C@H](C(=O)N(C)CC)CC(=O)N(C)[C@H]3CC/C=C/c4ccc(cc4)C[C@@H](C(=O)N(C)CC(=O)N[C@@H](CCc4ccc(Cl)c(Cl)c4)C(=O)N2C1)N1CC/C=C\C[C@@H](C1=O)N(C)C(=O)CN(C1CC1)C(=O)[C@H]([C@@H](C)CC)NC3=O [PP2598] | A (a compound having 10 or more and less than 20 is denoted as A) | A (a compound having 10 or more and less than 20 is denoted as A) |  |  |  |
| CCOC[C@H]1C(=O)N[C@@H]([C@@H](C)CC)C(=O)N(C)CC(=O)N(C)[C@H]2C/C=C\CCN(C2=O)[C@@H](Cc2ccc(CC)cc2)C(=O)N(C)CC(=O)N[C@@H](CCc2ccc(C(F)(F)F)c(OC)c2)C(=O)N2C[C@@H](C)C[C@H]2C(=O)NC2(CC(C)(C)C2)C(=O)N(C)[C@@H](C2CCCC2)C(=O)N(C)[C@H](C(=O)N(C)CC)CC(=O)N1C (stereo in doubt) [PP2696] | A (a compound having 10 or more and less than 20 is denoted as A) | B (a compound having 3 or more and less than 10 is denoted as B) |  |  |  |
| CC[C@@H]1C[C@H]2C(=O)NC3(CCCC3)C(=O)N(C)[C@@H](C3CCCC3)C(=O)N(C)[C@H](C(=O)N(C)C)CC(=O)N(C)[C@@H](CC(C)C)C(=O)N[C@@H]([C@@H](C)CC)C(=O)N(C)CC(=O)N(C)[C@H]3C/C=C\CCN(C3=O)[C@@H](Cc3ccc(C)cc3)C(=O)N(C)CC(=O)N[C@@H](CCc3cc(F)c(C(F)(F)F)c(F)c3)C(=O)N2C1 [PP2191] |  |  | A (a compound having 10 or more and less than 20 is denoted as A) | B (a compound having 3 or more and less than 10 is denoted as B) |  |
